Test results from patent US20150056166A1, “FLAVONE DERIVATIVES AND THEIR USE” (Twincore GmbH, priority 2012, published 2015).

System: Jc1
Test: HCV virus assembly/release, intra- and extracellular core protein after Jc1 RNA transfection
Type: cell-based
Conditions: up to a dose of 20 μM, 48 h after transfection
Experimental: (A) Huh7-Lunet/CD81 cells were transfected with the subgenomic luciferase replicon depicted at the top. Drugs were added 4 h post transfection and the level of HCV RNA translation and RNA replication was quantified by luciferase assays 72 h post transfection. Mean values of three independent experiments each with quadruplicate measurements including the standard deviation are shown. (B) Cells were transfected with the Jc1 chimera depicted above and drugs were added 4 h later. HCV virus release in the presence or absence of given compounds was determined by quantification of intracellular and extracellular core protein levels using a core-specific ELISA. Mean values of three independent experiments with single measurements including the error range are given. (C) Huh7-Lunet/CD81 cells were inoculated with Luc-Jc1 reporter viruses prepared in the absence of drugs. BJ486K was added to the cells only prior to inoculation (black), only during inoculation (grey) or selectively directly after inoculation (white) as schematically depicted at the top. Infectivity was determined 72 h later by luciferase assays and compared to DMSO-treated controls. Mean values of three independent experiments each with quadruplicate measurements including the standard deviation are shown.
Huh7-Lunet/CD81 cells were transfected with Jc1 RNA and seeded on a 6-well plate. Compounds were added 4 h later. At 48 h after transfection, cell culture supernatant was harvested and used for measuring the extracellular core amount. Cells were washed once with PBS, scraped and centrifuged for 5 min at 1000×g. Cell pellets were resuspended in 500 μl fresh culture fluid and subjected to three cycles of freeze and thaw using liquid nitrogen and a 37° C. thermo block. Samples were than centrifuged at 10,000×g for 10 min to remove cell debris and the core amount was measured (intracellular core protein) using the […] […]
To determine whether BJ486K affects virus assembly or release we transfected Huh7-Lunet/CD81 cells with Jc1 RNA and quantified intra- and extracellular levels of core protein 48 h after transfection (FIG. 2B).

## COc1ccc(-c2cc(=O)c3c(O)c(O)c(OC)cc3o2)cc1 [BJ486K, 5,6-Dihydroxy-7-methoxy-2-(4-methoxy-phenyl)-chromen-4-one]
  intracellular and extracellular core protein levels: reduced neither intracellular nor extracellular core protein levels
